Measurements reported in ChEMBL document CHEMBL5506053, “Explorations of Agonist Selectivity for the α9* nAChR with Novel Substituted Carbamoyl/Amido/Heteroaryl Dialkylpiperazinium Salts and Their Therapeutic Implications in Pain and Inflammation” (J Med Chem, 2024).
Active and inactive are the calls of the source.

What was measured:
[1] = Metabolic stability in pooled BALB/c mouse plasma at 1 uM measured after 0 to 120 mins by UPLC-MS/MS analysis; format: ADME, cell-free; conditions: time 0-120 min
[2] = Apparent permeability across apical to basolateral side in human Caco-2 cells at pH 6.8 at 5 ug/ml measured after 2 hrs by UPLC-MS/MS analysis; format: ADME, cell-based; conditions: caco-2, pH 6.8, 2 h, dose 5 µg/ml
[3] = target: T1, Neuronal acetylcholine receptor; alpha3/beta4 (Homo sapiens) (UniProt P30926+P32297); test: Agonist activity at human alpha3beta4 nAChR expressed in xenopus laevis oocytes at 100 uM measured after 120 secs by two-electrode voltage-clamp electrophysiology method relative to control; format: cell-based; conditions: Oocyte, time 120.0 sec
Oocyte [4] = test: Agonist activity at mouse muscle alpha1beta1epsilondelta nAChR expressed in xenopus laevis oocytes at 30 uM measured after 120 secs by two-electrode voltage-clamp electrophysiology method relative to control; format: cell-based; conditions: time 120.0 sec
Mus musculus [5] = test: Antinociceptive activity in complete freund's adjuvant induced inflammatory pain in C57BL/6J mouse model assessed as increase in mechanical pain threshold at 10 mg/kg, ip pretreated with CFA for 3 days followed by compound treatment and measured after 1 to 24 hrs; format: functional, organism-based; conditions: time 1-24 hrs
Mus musculus [6] = test: Antinociceptive activity in complete freund's adjuvant induced inflammatory pain in C57BL/6J mouse model assessed as increase in mechanical pain threshold at 10 mg/kg, ip pretreated with CFA for 3 days followed by compound treatment and measured after 72 hrs; format: functional, organism-based
[7] = target: T2, Neuronal acetylcholine receptor; alpha4/beta2 (Homo sapiens) (UniProt P17787+P43681); test: Inhibition of acetylcholine induced response in human alpha4beta2 nAChR expressed in xenopus laevis oocytes assessed as fold change at 30 uM preincubated with 3 uM acetylcholine followed by compound administration for 12 sec and measured 181 sec post washout by two-electrode voltage-clamp electrophysiology method relative to acetylcholine alone; format: cell-based; conditions: Oocyte
[8] = target: T3, Neuronal acetylcholine receptor subunit alpha-7 (Homo sapiens, UniProt P36544); test: Agonist activity at human alpha7 nAChR expressed as xenopus laevis oocytes assessed as increase in receptor desensitization by measuring fold change in peak current response at 30 uM incubated for 120 secs presence of PNU-120596 by two-electrode voltage-clamp electrophysiology method relative to acetylcholine; format: cell-based; conditions: Oocyte, filed as agonist, time 120.0 sec
T3 sequence (P36544 whole entry): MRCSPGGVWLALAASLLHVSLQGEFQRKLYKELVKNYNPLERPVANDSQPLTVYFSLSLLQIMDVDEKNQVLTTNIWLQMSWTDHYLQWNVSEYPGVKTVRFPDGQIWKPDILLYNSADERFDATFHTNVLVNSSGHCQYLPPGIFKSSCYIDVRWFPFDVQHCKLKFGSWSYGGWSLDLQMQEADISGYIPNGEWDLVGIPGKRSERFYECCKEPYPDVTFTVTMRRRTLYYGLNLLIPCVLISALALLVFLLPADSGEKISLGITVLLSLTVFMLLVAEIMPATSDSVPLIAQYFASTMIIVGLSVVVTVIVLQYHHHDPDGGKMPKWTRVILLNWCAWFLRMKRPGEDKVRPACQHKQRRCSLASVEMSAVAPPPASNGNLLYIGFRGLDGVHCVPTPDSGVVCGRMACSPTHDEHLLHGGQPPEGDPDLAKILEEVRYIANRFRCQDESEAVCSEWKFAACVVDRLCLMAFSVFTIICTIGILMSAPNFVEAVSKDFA

[9] = Apparent permeability across basolateral to apical side in human Caco-2 cells at pH 5 at 5 ug/ml measured after 2 hrs by UPLC-MS/MS analysis; format: ADME, cell-based; conditions: caco-2, pH 5, 2 h, dose 5 µg/ml
[10] = target: Neuronal acetylcholine receptor; alpha9/alpha10 (Homo sapiens) (UniProt Q9UGM1+Q9GZZ6); test: Agonist activity at human alpha9alpha10 nAChR expressed as xenopus laevis oocytes assessed as increase in receptor desensitization by measuring fold change in maximum response (Imax) measured after 120 secs by two-electrode voltage-clamp electrophysiology method relative to acetylcholine; format: cell-based; conditions: Oocyte, filed as agonist, time 120.0 sec
[11] = Toxicity in C57BL/6J mouse assessed as effect on locomotor activity at 10 mg/kg, ip measured after 6 hrs; format: organism-based; conditions: in vivo
Oocyte [12] = test: Inhibition of acetylcholine induced response in mouse muscle alpha1beta1epsilondelta nAChR expressed in xenopus laevis oocytes assessed as fold change at 30 uM preincubated with 3 uM acetylcholine followed by compound administration for 12 sec and measured 181 sec post washout by two-electrode voltage-clamp electrophysiology method relative to acetylcholine alone; format: cell-based
[13] = Apparent permeability across basolateral to apical side in human Caco-2 cells at pH 6.8 at 5 ug/ml measured after 2 hrs by UPLC-MS/MS analysis; format: ADME, cell-based; conditions: caco-2, pH 6.8, 2 h, dose 5 µg/ml
[14] = target: Neuronal acetylcholine receptor subunit alpha-9 (Homo sapiens, UniProt Q9UGM1); test: Agonist activity at human alpha9 nAChR expressed as xenopus laevis oocytes assessed as increase in receptor desensitization by measuring fold change in maximum response (Imax) measured after 120 secs by two-electrode voltage-clamp electrophysiology method relative to acetylcholine; format: cell-based; conditions: Oocyte, filed as agonist, time 120.0 sec
Neuronal acetylcholine receptor subunit alpha-9, sequence (Q9UGM1 whole entry): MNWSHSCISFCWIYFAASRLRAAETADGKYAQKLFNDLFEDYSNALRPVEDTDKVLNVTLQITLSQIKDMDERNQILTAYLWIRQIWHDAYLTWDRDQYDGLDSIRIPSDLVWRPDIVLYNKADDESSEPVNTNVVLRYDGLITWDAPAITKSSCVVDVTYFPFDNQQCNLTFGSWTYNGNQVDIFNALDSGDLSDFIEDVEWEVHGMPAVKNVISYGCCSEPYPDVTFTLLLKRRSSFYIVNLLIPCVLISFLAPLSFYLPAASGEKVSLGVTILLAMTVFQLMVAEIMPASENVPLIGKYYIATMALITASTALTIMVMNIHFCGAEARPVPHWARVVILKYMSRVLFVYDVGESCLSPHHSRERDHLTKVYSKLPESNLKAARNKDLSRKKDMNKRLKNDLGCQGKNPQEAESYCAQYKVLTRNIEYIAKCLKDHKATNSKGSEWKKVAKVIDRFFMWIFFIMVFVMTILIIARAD

[15] = target: T3, Neuronal acetylcholine receptor subunit alpha-7; test: Agonist activity at human alpha7 nAChR expressed as xenopus laevis oocytes assessed as increase in receptor desensitization by measuring fold change in maximum response (Imax) measured after 120 secs by two-electrode voltage-clamp electrophysiology method relative to acetylcholine; format: cell-based; conditions: Oocyte, filed as agonist, time 120.0 sec
Mus musculus [16] = test: Antinociceptive activity in complete freund's adjuvant induced inflammatory pain in C57BL/6J mouse model assessed as increase in mechanical pain threshold at 10 mg/kg, ip pretreated with CFA for 3 days followed by compound treatment and measured after 5 days; format: functional, organism-based; conditions: time 5.0 day
Mus musculus [17] = test: Antinociceptive activity in sham-treated C57BL/6J mouse model assessed as effect on von Frey response at 10 mg/kg, ip measured after 5 days; format: functional, organism-based; conditions: time 5.0 day
THP-1 [18] = test: Induction of IL-1beta release in LPS primed monocytic human THP-1 cells at 10 uM primed with LPS for 5 hrs followed by compound addition and further incubated for 40 mins by ELISA; format: functional, cell-based
[19] = Metabolic stability in pooled BALB/c mouse plasma assessed as compound remaining at 1 uM measured after 0 to 120 mins by UPLC-MS/MS analysis; format: ADME, cell-free; conditions: time 0-120 min
[20] = Apparent permeability across apical to basolateral side in human Caco-2 cells at pH 7.4 at 5 ug/ml measured after 2 hrs by UPLC-MS/MS analysis; format: ADME, cell-based; conditions: caco-2, pH 7.4, 2 h, dose 5 µg/ml
[21] = Plasma protein binding in human; format: ADME, cell-free
THP-1 [22] = test: Cytotoxicity against monocytic human THP-1 cells assessed as effect on lactate dehydrogenase activity in supernatant; format: toxicity, cell-based
Mus musculus [23] = test: Antiinflammatory activity in CFA-treated C57BL/6J mouse model assessed as reduction in paw edema at 10 mg/kg, ip measured after 6 hrs
[24] = target: T2, Neuronal acetylcholine receptor; alpha4/beta2 (Homo sapiens); test: Agonist activity at human alpha4beta2 nAChR expressed in xenopus laevis oocytes at 30 uM measured after 120 secs by two-electrode voltage-clamp electrophysiology method relative to control; format: cell-based; conditions: Oocyte, time 120.0 sec
Mus musculus [25] = test: Antinociceptive activity in complete freund's adjuvant induced inflammatory pain in alpha7 nAChR knockout C57BL/6J mouse model assessed as increase in mechanical pain threshold at 10 mg/kg, ip pretreated with CFA for 3 days followed by compound treatment and measured after 6 hrs; format: functional, organism-based
Mus musculus [26] = test: Antinociceptive activity in complete freund's adjuvant induced inflammatory pain in C57BL/6J mouse model assessed as increase in mechanical pain threshold at 2 mg/kg, ip pretreated with CFA for 3 days followed by compound treatment and measured after 6 to 24 hrs; format: functional, organism-based; conditions: time 6-24 hrs
[27] = Apparent permeability across basolateral to apical side in human Caco-2 cells at pH 7.4 at 5 ug/ml measured after 2 hrs by UPLC-MS/MS analysis; format: ADME, cell-based; conditions: caco-2, pH 7.4, 2 h, dose 5 µg/ml
Mus musculus [28] = test: Antinociceptive activity in complete freund's adjuvant induced inflammatory pain in C57BL/6J mouse model harboring wild type alpha7 nAChR assessed as increase in mechanical pain threshold at 10 mg/kg, ip pretreated with CFA for 3 days followed by compound treatment and measured after 6 hrs; format: functional, organism-based
[29] = Apparent permeability across apical to basolateral side in human Caco-2 cells at pH 5 at 5 ug/ml measured after 2 hrs by UPLC-MS/MS analysis; format: ADME, cell-based; conditions: caco-2, pH 5, 2 h, dose 5 µg/ml
[30] = target: T1, Neuronal acetylcholine receptor; alpha3/beta4 (Homo sapiens); test: Inhibition of acetylcholine induced response in human alpha3beta4 nAChR expressed in xenopus laevis oocytes assessed as fold change at 100 uM preincubated with 3 uM acetylcholine followed by compound administration for 12 sec and measured 181 sec post washout by two-electrode voltage-clamp electrophysiology method relative to acetylcholine alone; format: cell-based; conditions: Oocyte
Mus musculus [31] = test: Antiinflammatory activity in CFA-treated C57BL/6J mouse model assessed as reduction in paw edema at 20 mg/kg, ip measured after 6 hrs
[32] = Toxicity in C57BL/6J mouse assessed as effect on locomotor activity at 20 mg/kg, ip measured after 6 hrs; conditions: in vivo
Mus musculus [33] = test: Antinociceptive activity in sham-treated C57BL/6J mouse model assessed as effect on von Frey response at 20 mg/kg, ip measured after 1 to 72 hrs; format: functional, organism-based; conditions: time 1-72 hrs
PBMC [34] = test: Inhibition of ATP-mediated IL-1beta release in LPS primed BzATP induced human PBMC cells at 100 fM primed with LPS for 3 hrs followed by BzATP and compound addition for 30 mins by ELISA; format: functional, cell-based
Mus musculus [35] = test: Antinociceptive activity in complete freund's adjuvant induced inflammatory pain in C57BL/6J mouse model assessed as increase in mechanical pain threshold at 20 mg/kg, ip pretreated with CFA for 3 days followed by compound treatment and measured after 1 to 72 hrs; format: functional, organism-based; conditions: time 1-72 hrs
[36] = target: T3, Neuronal acetylcholine receptor subunit alpha-7; test: Partial agonist activity at human alpha7 nAChR expressed as xenopus laevis oocytes assessed as increase in receptor desensitization by measuring fold change in maximum response (Imax) measured after 120 secs by two-electrode voltage-clamp electrophysiology method relative to acetylcholine; format: cell-based; conditions: Oocyte, filed as partial agonist, time 120.0 sec
PBMC [37] = test: Inhibition of ATP-mediated IL-1beta release in LPS primed BzATP induced human PBMC cells at 100 uM primed with LPS for 3 hrs followed by BzATP and compound addition for 30 mins by ELISA; format: functional, cell-based

Structure (SMILES)	Stability [1]	Papp [2]	Activity [3]	Activity (Oocyte [4])	fold change (FC) [7]	fold change (FC) [8]	Papp [9]	fold change (FC) [10]	fold change (FC) (Oocyte [12])	Papp [13]	fold change (FC) [14]	Activity (THP-1 [18])	Stability [19]	Papp [20]	PPB [21]	Activity (THP-1 [22])	Activity [24]	Papp [27]	Papp [29]	fold change (FC) [30]	other results
CC[N+]1(C)CCN(c2ccc(NC(=O)c3cccc(C)n3)cc2)CC1.[I-]	Stable	2.8 10^-6 cm/s	< 1%	< 1%	1.05	111	2.9 10^-6 cm/s	1.04	0.558	3 10^-6 cm/s	1.01	inactive	> 90%	2.4 10^-6 cm/s	54%	Non-Toxic	< 1%	3.1 10^-6 cm/s	2.5 10^-6 cm/s	0.659	Activity (Mus musculus [5]): Active; Activity (Mus musculus [6]): inactive; Activity [11]: Non-Toxic; fold change (FC) [15]: 0.41; Activity (Mus musculus [16]): Active; Activity (Mus musculus [17]): inactive; Activity (Mus musculus [23]): Active; Activity (Mus musculus [25]): Active; Activity (Mus musculus [26]): Active; Activity (Mus musculus [28]): Active
CC[N+]1(C)CCN(c2ccc(C(=O)Nc3cccc(C)n3)cc2)CC1.[I-]	Stable	2.2 10^-6 cm/s	< 1%	< 1%	0.858	0.13	1.9 10^-6 cm/s	0.92	0.413	2.6 10^-6 cm/s	1.19	inactive	> 90%	2.2 10^-6 cm/s	32%	Non-Toxic	< 1%	2.9 10^-6 cm/s	1.9 10^-6 cm/s	0.849	Activity (Mus musculus [31]): Active; Activity [32]: Non-Toxic; Activity (Mus musculus [33]): inactive; inhibition (PBMC [34]): Active; Activity (Mus musculus [35]): Active; fold change (FC) [36]: 0.4; inhibition (PBMC [37]): inactive
